According to patent US9504652B2 (Druggability Technologies IP Holdco (Jersey) Ltd., priority 2010, dated 2016):
Like-named read-outs stand apart in the source and are kept apart here.

Columns and labels:
[1] = Comparative dissolution test (wettability and redispersibility) in distillate water; type: physicochemical; conditions: 4.0 mg Aprepitant in 8.0 mL distillate water, stirred 10 minutes
[2] = cited from earlier work
human liver microsomes = conditions: cited from earlier work
[3] = over 72 hours, single oral 300 mg dose of [14C]-Aprepitant; cited from earlier work
PAMPA permeability = type: in vitro ADME; conditions: for Papp: PAMPA
Description: The sample containing the reference compound was a suspension of crystals visible by the naked eye, while the other two samples were opalescent colloid solutions. The receiver compartment was phosphate buffered saline with 1% sodium lauryl sulphate and 5% DMSO.

In the case of `C[C@@H](O[C@H]1OCCN(Cc2n[nH]c(=O)[nH]2)[C@H]1c1ccc(F)cc1)c1cc(C(F)(F)F)cc(C(F)(F)F)c1` [Aprepitant, 5-[[(2R,3S)-2-[(1R)-1-[3,5-bis(trifluoromethyl)phenyl]ethoxy]-3-(4-fluorophenyl)-4-morpholinyl]methyl]-1,2-dihydro-3H-1,2,4-triazol-3-one], the “wettability and redispersibility / dissolution” value [1] is listed as “did not wet and did not dissolve”, the solubility ([2]; acetonitrile) is listed as “slightly soluble” and the solubility ([2]; ethanol) is listed as “sparingly soluble”. The solubility ([2]; isopropyl acetate) was “sparingly soluble”, the solubility ([2]; water) was “practically insoluble” and the “CYP enzymes with no metabolism detected” value (human liver microsomes) was “No metabolism by CYP2D6, CYP2C9, or CYP2E1 was detected”. For the same compound, the “metabolizing CYP enzymes” value (human liver microsomes) was “metabolized primarily by CYP3A4 with minor metabolism by CYP1A2 and CYP2C19”, the “share of the radioactivity in plasma accounted for by Aprepitant” value [3] was “approximately 24%” and the “ratio of PAMPA permeability for FeSSIF and FaSSIF” value (PAMPA permeability; FeSSIF/FaSSIF) was 10.7. It also gave a Papp (PAMPA permeability; redispersed in FaSSIF) of 0.044 ×10⁻⁶ cm/s and a Papp (PAMPA permeability; redispersed in FeSSIF) of 0.471 ×10⁻⁶ cm/s.
